This note sets out measurements from patent publication US9238656B2, “Imidazo[4,5-b]pyridine derivatives as ALK and JAK modulators for the treatment of proliferative disorders” (priority 2012, dated 2016).

The target in test [1] is baculovirus-expressed ALK (Homo sapiens, UniProt Q9UM73). Nature of the test: ALK kinase inhibition, TRF/ELISA. The conditions noted are these: read-out: ALK Potency. The test is classed as biochemical. The protocol: Briefly, each 96-well plate was coated with 100 μL/well of 10 μg/mL substrate (GST-PLC-γ) in Tris-buffered saline (TBS). […] The reaction was initiated by adding enzyme (30 ng/mL ALK) and was allowed to proceed at 37° C. for 15 minutes. Detection of the phosphorylated product was performed by adding 100 μL/well of Eu-N1 labeled PT66 antibody (Perkin Elmer #AD0041). […] Data analysis was performed using ActivityBase (IDBS, Guilford, UK). IC50 values were calculated by plotting percent inhibition versus log10 of the concentration of compound and fitting to the nonlinear regression sigmoidal dose-response (variable slope) equation in XLFit (IDBS, Guilford, UK).
Chain of baculovirus-expressed ALK (Q9UM73 19-1620): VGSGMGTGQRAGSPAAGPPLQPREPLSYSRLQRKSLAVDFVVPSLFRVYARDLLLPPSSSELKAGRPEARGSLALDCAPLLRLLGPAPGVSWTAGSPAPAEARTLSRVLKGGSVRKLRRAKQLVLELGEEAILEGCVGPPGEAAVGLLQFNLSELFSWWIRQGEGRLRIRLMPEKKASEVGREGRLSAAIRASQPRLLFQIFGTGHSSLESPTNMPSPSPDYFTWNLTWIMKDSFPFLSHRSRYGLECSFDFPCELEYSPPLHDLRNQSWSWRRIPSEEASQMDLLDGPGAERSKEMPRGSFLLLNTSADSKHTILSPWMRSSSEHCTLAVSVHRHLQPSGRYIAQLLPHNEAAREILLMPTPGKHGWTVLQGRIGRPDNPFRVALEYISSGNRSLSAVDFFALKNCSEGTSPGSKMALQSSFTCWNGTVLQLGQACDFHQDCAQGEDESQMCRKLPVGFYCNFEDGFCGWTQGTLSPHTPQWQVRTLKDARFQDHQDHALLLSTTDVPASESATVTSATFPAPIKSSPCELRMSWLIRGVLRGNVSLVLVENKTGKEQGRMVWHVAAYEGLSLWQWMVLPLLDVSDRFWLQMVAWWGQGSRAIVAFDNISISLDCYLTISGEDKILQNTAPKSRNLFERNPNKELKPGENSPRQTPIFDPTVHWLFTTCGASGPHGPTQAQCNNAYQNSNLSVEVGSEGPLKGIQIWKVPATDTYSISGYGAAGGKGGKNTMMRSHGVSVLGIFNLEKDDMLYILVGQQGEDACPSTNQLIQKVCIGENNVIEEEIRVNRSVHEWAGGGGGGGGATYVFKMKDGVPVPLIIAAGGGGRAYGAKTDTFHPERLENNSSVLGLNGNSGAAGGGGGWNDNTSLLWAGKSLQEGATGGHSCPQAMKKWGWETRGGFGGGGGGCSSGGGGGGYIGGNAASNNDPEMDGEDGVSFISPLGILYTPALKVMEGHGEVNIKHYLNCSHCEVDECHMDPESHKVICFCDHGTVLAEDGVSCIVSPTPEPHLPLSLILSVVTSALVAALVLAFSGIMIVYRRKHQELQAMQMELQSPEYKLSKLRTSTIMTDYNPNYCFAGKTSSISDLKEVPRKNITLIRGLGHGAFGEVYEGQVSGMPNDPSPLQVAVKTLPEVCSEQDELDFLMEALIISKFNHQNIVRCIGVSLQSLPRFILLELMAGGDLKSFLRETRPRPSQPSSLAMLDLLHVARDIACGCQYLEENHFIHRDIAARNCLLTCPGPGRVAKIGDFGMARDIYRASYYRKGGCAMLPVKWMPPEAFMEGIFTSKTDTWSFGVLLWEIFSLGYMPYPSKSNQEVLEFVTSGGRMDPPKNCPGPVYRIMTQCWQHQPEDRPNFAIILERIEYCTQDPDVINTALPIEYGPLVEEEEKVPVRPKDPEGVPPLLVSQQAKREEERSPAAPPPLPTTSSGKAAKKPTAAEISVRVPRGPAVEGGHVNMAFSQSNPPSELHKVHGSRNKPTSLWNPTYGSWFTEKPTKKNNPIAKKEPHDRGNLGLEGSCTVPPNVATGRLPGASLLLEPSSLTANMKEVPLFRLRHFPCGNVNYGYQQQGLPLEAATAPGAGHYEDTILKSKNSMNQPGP
(In general: ELISA stands for enzyme-linked immunosorbent assay.)

Test [2] has as its target baculovirus-expressed JAK2 kinase (Homo sapiens, UniProt O60674). Nature of the test: biochemical. The conditions noted are these: 0.2 μM ATP; read-out: JAK2 Potency. The essentials: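 Time-resolved fluorescence kinase assay using 15 ng/mL baculovirus-expressed JAK2 on Neutravidin-captured biotinylated 15-mer peptide substrate, reaction 20 min at room temperature. IC50 from percent inhibition versus log concentration, sigmoidal variable-slope fit.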

Counter-ions that a name gives are not always drawn. A value given as a limit tells only on which side of the number the result lay.

Chain of baculovirus-expressed JAK2 kinase (O60674 whole entry): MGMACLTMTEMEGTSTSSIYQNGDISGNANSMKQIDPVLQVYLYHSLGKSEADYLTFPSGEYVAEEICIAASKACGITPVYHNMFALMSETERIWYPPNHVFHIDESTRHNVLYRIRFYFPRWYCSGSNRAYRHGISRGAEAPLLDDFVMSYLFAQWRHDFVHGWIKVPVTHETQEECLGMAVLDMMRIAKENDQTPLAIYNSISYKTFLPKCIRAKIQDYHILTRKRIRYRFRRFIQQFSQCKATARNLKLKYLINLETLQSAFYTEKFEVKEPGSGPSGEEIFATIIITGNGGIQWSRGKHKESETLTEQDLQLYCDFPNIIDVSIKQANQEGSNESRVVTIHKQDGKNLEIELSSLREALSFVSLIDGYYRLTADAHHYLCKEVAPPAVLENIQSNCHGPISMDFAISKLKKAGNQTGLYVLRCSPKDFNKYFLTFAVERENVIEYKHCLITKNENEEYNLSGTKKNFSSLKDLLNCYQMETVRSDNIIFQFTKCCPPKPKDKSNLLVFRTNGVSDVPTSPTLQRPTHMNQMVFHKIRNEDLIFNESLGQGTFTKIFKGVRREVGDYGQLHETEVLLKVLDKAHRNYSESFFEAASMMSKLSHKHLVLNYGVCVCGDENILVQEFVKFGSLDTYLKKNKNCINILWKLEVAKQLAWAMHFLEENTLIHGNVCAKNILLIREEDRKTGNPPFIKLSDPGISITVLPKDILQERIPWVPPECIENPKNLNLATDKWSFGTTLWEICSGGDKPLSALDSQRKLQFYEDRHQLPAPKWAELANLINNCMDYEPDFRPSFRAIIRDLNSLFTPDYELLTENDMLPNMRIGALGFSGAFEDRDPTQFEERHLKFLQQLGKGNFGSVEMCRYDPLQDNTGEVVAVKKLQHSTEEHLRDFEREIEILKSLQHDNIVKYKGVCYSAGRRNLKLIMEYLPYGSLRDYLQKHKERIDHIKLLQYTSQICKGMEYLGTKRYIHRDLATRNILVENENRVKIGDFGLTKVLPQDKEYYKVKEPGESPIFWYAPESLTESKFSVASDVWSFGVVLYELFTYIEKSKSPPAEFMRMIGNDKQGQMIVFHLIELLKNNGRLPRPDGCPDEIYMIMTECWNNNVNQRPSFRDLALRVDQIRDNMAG

Consider `CN(C)c1ccc(-c2nc3c(N[C@H]4[C@@H](C(N)=O)[C@@H]5C=C[C@H]4C5)c(Cl)cnc3[nH]2)cc1` [Compound I, (1S,2S,3R,4R)-3-[6-Chloro-2-(4-dimethylamino-phenyl)-3H-imidazo[4,5-b]pyridin-7-ylamino]-bicyclo[2.2.1]hept-5-ene-2-carboxylic acid amide], for which the IC50 in test [1] and in test [2] was less than 100 nM in each case.

On to `Cc1nc(C2CCNCC2)sc1-c1nc2c(N[C@H]3[C@@H](C(N)=O)[C@@H]4C=C[C@H]3C4)c(Cl)cnc2[nH]1` [Compound LXIV, (1S,2S,3R,4R)-3-[6-Chloro-2-(4-methyl-2-piperidin-4-yl-thiazol-5-yl)-3H-imidazo[4,5-b]pyridine-7-ylamino]-bicyclo[2.2.1]hept-5-ene-2-carboxylic acid amide], for which the IC50 in test [1] and in test [2] was less than 100 nM throughout.

Take `CN(C)CCOc1ccc(-c2nc3c(N[C@H]4[C@@H](C(=O)N(C)C)[C@@H]5C=C[C@H]4C5)c(Cl)cnc3[nH]2)cc1` [Compound CLXXVII, (1S,2S,3R,4R)-3-[6-Chloro-2-[4-(2-dimethylamino-ethoxy)-phenyl]-3H-imidazo[4,5-b]pyridin-7-ylamino]-bicyclo[2.2.1]hept-5-ene-2-carboxylic acid dimethylamide]: the IC50 was 100 to 1000 nM in test [1] and less than 100 nM in test [2].

`Cc1nn(C)c(C)c1-c1nc2c(N[C@H]3[C@@H](C(N)=O)[C@@H]4C=C[C@H]3C4)c(Br)cnc2[nH]1` [Compound CLII, (1S,2S,3R,4R)-3-[6-Bromo-2-(1,3,5-trimethyl-1H-pyrazol-4-yl)-3H-imidazo[4,5-b]pyridin-7-ylamino]-bicyclo[2.2.1]hept-5-ene-2-carboxylic acid amide]: the IC50 in test [1] and in test [2] was less than 100 nM throughout.

As for `COc1ccccc1Nc1nc2c(N[C@H]3[C@@H](C(N)=O)[C@@H]4C=C[C@H]3C4)c(Cl)cnc2[nH]1` [Compound LXVIII, (1S,2S,3R,4R)-3-[6-Chloro-2-(2-methoxy-phenylamino)-3H-imidazo[4,5-b]pyridine-7-ylamino]-bicyclo[2.2.1]hept-5-ene-2-carboxylic acid amide], the IC50 in test [1] is 100 to 1000 nM; in test [2], less than 100 nM.

With `CN1CCN(C(=O)c2ccc(-c3nc4c(N[C@H]5[C@@H](C(N)=O)[C@@H]6C=C[C@H]5C6)c(Cl)cnc4[nH]3)cc2)CC1` [Compound CCXXII, (1S,2S,3R,4R)-3-(6-chloro-2-(4-(4-methylpiperazine-1-carbonyl)phenyl)-3H-imidazo[4,5-b]pyridin-7-ylamino)bicyclo[2.2.1]hept-5-ene-2-carboxamide], the IC50 in test [1] and in test [2] was less than 100 nM throughout.

As to `CN1CCN(Cc2ccc(-c3nc4c(N[C@@H]5CCCC[C@H]5NS(C)(=O)=O)c(Cl)cnc4[nH]3)cc2)CC1` [CCLIV, N-((1R,2R)-2-{6-Chloro-2-[4-(4-methyl-piperazin-1-ylmethyl)-phenyl]-3H-imidazo[4,5-b]pyridin-7-ylamino}-cyclohexyl)-methanesulfonamide], the IC50 in test [1] and in test [2] was less than 100 nM throughout.

For `NC(=O)[C@@H]1[C@H](Nc2c(Cl)cnc3[nH]c(-c4cccc(CN5CCOCC5)c4)nc23)[C@H]2C=C[C@@H]1C2` [Compound XVI, (1S,2S,3R,4R)-3-[6-Chloro-2-(3-morpholin-4-ylmethyl-phenyl)-3H-imidazo[4,5-b]pyridin-7-ylamino]-bicyclo[2.2.1]hept-5-ene-2-carboxylic acid amide trifluoroacetic acid salt], the IC50 in test [1] and in test [2] was less than 100 nM in each case.

`COc1ncc(-c2nc3c(N[C@H]4[C@@H](C(N)=O)[C@@H]5C=C[C@H]4C5)c(Cl)cnc3[nH]2)s1` [Compound CCIX, (1S,2S,3R,4R)-3-(6-chloro-2-(2-methoxythiazol-5-yl)-3H-imidazo[4,5-b]pyridin-7-ylamino)bicyclo[2.2.1]hept-5-ene-2-carboxamide]: the results for the IC50 in test [1] and in test [2] were 100 to 1000 nM and less than 100 nM, respectively.

In the case of `CC(O)CN1CCC(Oc2ccc(-c3nc4c(N[C@H]5[C@@H](C(N)=O)[C@@H]6C=C[C@H]5C6)c(Cl)cnc4[nH]3)cc2)CC1` (stereo partly drawn) [Compound CCLII, (1S,2S,3R,4R)-3-(6-chloro-2-(4-(1-(2-hydroxypropyl)piperidin-4-yloxy)phenyl)-3H-imidazo[4,5-b]pyridin-7-ylamino)bicyclo[2.2.1]hept-5-ene-2-carboxamide], the IC50 in test [1] and in test [2] was less than 100 nM throughout.

Take `CN(C)c1nc(Cl)c(-c2nc3c(N[C@H]4[C@@H](C(N)=O)[C@@H]5C=C[C@H]4C5)c(Br)cnc3[nH]2)s1` [Compound CLV, (1S,2S,3R,4R)-3-[6-Bromo-2-(4-chloro-2-dimethylamino-thiazol-5-yl)-3H-imidazo[4,5-b]pyridin-7-ylamino]-bicyclo[2.2.1]hept-5-ene-2-carboxylic acid amide]: the IC50 in test [1] and in test [2] was less than 100 nM throughout.

For the molecule `NC(=O)[C@@H]1[C@H](Nc2c(Cl)cnc3[nH]c(-c4ccc(C(=O)O)cc4)nc23)[C@H]2C=C[C@@H]1C2` [Compound CCXVIII, 4-(7-((1R,2R,3S,4S)-3-carbamoylbicyclo[2.2.1]hept-5-en-2-ylamino)-6-chloro-3H-imidazo[4,5-b]pyridin-2-yl)benzoic acid], the results for the IC50 in test [1] and in test [2] were 100 to 1000 nM and less than 100 nM, respectively.

Turning to `COc1cc(CN2CC[C@@H](O)C2)ccc1-c1nc2c(N[C@@H]3CCCC[C@H]3NS(C)(=O)=O)c(Cl)cnc2[nH]1` [Compound LXXV, N-((1R,2R)-2-{6-Chloro-2-[4-((R)-3-hydroxy-pyrrolidin-1-ylmethyl)-2-methoxy-phenyl]-3H-imidazo[4,5-b]pyridine-7-ylamino}-cyclohexyl)-methanesulfonamide], the figures for the IC50 in test [1] and in test [2] were less than 100 nM and 1000 to 10000 nM, respectively.

As to `NC(=O)[C@@H]1[C@H](Nc2c(Cl)cnc3[nH]c(-c4ccc(F)cc4)nc23)[C@H]2C=C[C@@H]1C2` [Compound CXXIX, (1S,2S,3R,4R)-3-[6-Chloro-2-(4-fluoro-phenyl)-3H-imidazo[4,5-b]pyridin-7-ylamino]-bicyclo[2.2.1]hept-5-ene-2-carboxylic acid amide], the IC50 in test [1] is 100 to 1000 nM; in test [2] it was less than 100 nM.

Turning to `CC12CCC(Nc3c(Cl)cnc4[nH]c(-c5ccc(N6CCOCC6)cc5)nc34)(CC1=O)C2(C)C` (stereo not drawn) [Compound CXCVIII, 4-(6-chloro-2-(4-morpholinophenyl)-3H-imidazo[4,5-b]pyridin-7-ylamino)-1,7,7-trimethylbicyclo[2.2.1]heptan-2-one], the results for the IC50 in test [1] and in test [2] were greater than 10000 nM and less than 100 nM, respectively.

Regarding `CN(C)CCNC(=O)c1cccc(-c2nc3c(N[C@H]4[C@@H](C(N)=O)[C@@H]5C=C[C@H]4C5)c(Cl)cnc3[nH]2)c1` [Compound CCXXXI, (1S,2S,3R,4R)-3-(6-chloro-2-(3-(2-(dimethylamino)ethylcarbamoyl)phenyl)-3H-imidazo[4,5-b]pyridine-7-ylamino)pyridin[2.2.1]hept-5-ene-2-carboxamide], the IC50 in test [1] and in test [2] was less than 100 nM each time.

As for `CN(C)C(=O)[C@@H]1[C@H](Nc2c(Cl)cnc3[nH]c(-c4sc(N5CC[C@@H](O)C5)nc4Cl)nc23)[C@H]2C=C[C@@H]1C2` [Compound CLXVIII, (1S,2S,3R,4R)-3-{6-Chloro-2-[4-chloro-2-((R)-3-hydroxy-pyrrolidin-1-yl)-thiazol-5-yl]-3H-imidazo[4,5-b]pyridin-7-ylamino}-bicyclo[2.2.1]hept-5-ene-2-carboxylic acid dimethylamide], the IC50 in test [1] and in test [2] was less than 100 nM in each case.

Take `CCNC(=O)N1CCC(n2cc(-c3nc4c(N[C@H]5[C@@H](C(N)=O)[C@@H]6C=C[C@H]5C6)c(Cl)cnc4[nH]3)cn2)CC1` [Compound LXII, 4-{4-[7-((1R,2R,3S,4S)-3-Carbamoyl-bicyclo[2.2.1]hept-5-ene-2-ylamino)-6-chloro-3H-imidazo[4,5-b]pyridine-2-yl]-pyrazol-1-yl)-piperidine-1-carboxylic acid ethylamide]: the IC50 in test [1] and in test [2] was less than 100 nM throughout.

`NC(=O)[C@@H]1[C@H](Nc2c(Br)cnc3[nH]c(-c4ccc(CN5CCOCC5)cc4)nc23)[C@H]2C=C[C@@H]1C2` [Compound LXXX, (1S,2S,3R,4R)-3-[6-Bromo-2-(4-morpholin-4-ylmethyl-phenyl)-3H-imidazo[4,5-b]pyridin-7-ylamino]-bicyclo[2.2.1]hept-5-ene-2-carboxylic acid amide]: the IC50 in test [1] and in test [2] was less than 100 nM throughout.

On to `NC(=O)[C@@H]1[C@H](Nc2c(Cl)cnc3[nH]c(-c4ccc(N5CCNCC5)cc4)nc23)[C@H]2C=C[C@@H]1C2` [Compound XV, (1S,2S,3R,4R)-3-[6-Chloro-2-(4-piperazin-1-yl-phenyl)-3H-imidazo[4,5-b]pyridin-7-ylamino]-bicyclo[2.2.1]hept-5-ene-2-carboxylic acid amide trifluoroacetic acid salt], for which the IC50 in test [1] and in test [2] was less than 100 nM throughout.

`COc1cc(N2CCOCC2)ccc1-c1nc2c(N3C[C@@H]4C[C@H]3CN4C[C@H](C)O)c(Cl)cnc2[nH]1` [Compound XXXIX, (S)-1-[(1S,4S)-5-[6-Chloro-2-(methoxy-4-morpholin-4-yl-phenyl)-3H-imidazo[4,5-b]pyridine-7-yl]-2,5-diaza-bicyclo[2.2.1]hept-2-yl]-propan-2-ol]: the IC50 in test [1] and in test [2] was greater than 10000 nM throughout.
